Assays:
Assay type in all cases: in vivo
NASH-HCC mouse [1] = experiment: Ballooning of hepatocytes score, NASH-HCC mouse model (Example 2, Compound 1 with ipragliflozin); details: 3 weeks, group mean of scores 0-2, control 1.50, not significant vs control
Description: Ballooning of hepatocytes in each mouse was scored under blind conditions according to the following criteria (Kleiner et al., Hepatology 41, 1313-21, 2005). No balloon cells: 0 Balloon cell is rare (Few balloon cells): 1 Many Balloon cells or prominent (Ballooning): 2 Then, the mean value of the scores (ballooning score) was calculated in each group and the values were shown (FIG. 2). Statistical processing was performed using statistical software EZR, which extends the functions of R and R commander. The software is distributed free of charge on the website of Jichi Medical University Saitama Medical Center (Bone Marrow Transplantation (2013) 48, 452-458). The Steel test (N=5 to 7) was performed using EZR, the drug administration group was labeled with the mark * in figures when the group had the significant difference at p<0.05 with respect to the control group, and labeled with the mark ** when the group had the significant difference at p<0.01. The effect of Compound 1 combined with ipragliflozin was examined in NASH-HCC mice (Non-Patent Document 9). NASH-HCC mice were prepared in the same manner as in 1) of Example 1, and were used for this experiment. […]

NASH-HCC mouse [2] = experiment: Ballooning of hepatocytes score, NASH-HCC mouse model (Example 1, Compound 1 with tofogliflozin); details: 3 weeks, group mean of scores 0-2, control 1.33, not significant vs control
Description: A NASH-HCC mouse is a model animal that develops liver cirrhosis from fatty liver via NASH when it is fed with a high fat diet, and subsequently develops hepatocellular carcinoma (Non-Patent Document 9). The effect of compound 1 combined with tofogliflozin was examined using the NASH-HCC mouse model. NASH-HCC mice were prepared with reference to Non-Patent Document 9, and were used for this experiment. Specifically, male C57BL/6J mice were subcutaneously administered 200 μg of streptozotocin on the second day after birth. The mice were fed ad libitum with a high-fat diet (HFD-32, Clea Japan, Inc.) for 2 weeks starting from 4-week-old. […] Daily food consumption of the mice in each group were measured while the drugs were administered so that the mice of all groups were fed with the same amount of food as those for the control group. […] Using the specimens, the lipid droplet size in hepatocyte was analyzed by image analysis software Image J. The area of 6000 to 10,000 lipid droplets was measured in each specimen. The median of the lipid droplet area was calculated for each mouse and then the median and quartile were calculated for each group based on the median for each mouse in the group. […] Ballooning of hepatocytes in each mouse was scored under blind conditions according to the following criteria (Kleiner et al., Hepatology 41, 1313-21, 2005). […]

NASH-HCC mouse [3] = experiment: Lipid droplet size in hepatocytes, NASH-HCC mouse model (Example 1, Compound 1 with tofogliflozin); details: 3 weeks, control 1.17, not significant vs control
Description: A NASH-HCC mouse is a model animal that develops liver cirrhosis from fatty liver via NASH when it is fed with a high fat diet, and subsequently develops hepatocellular carcinoma (Non-Patent Document 9). The effect of compound 1 combined with tofogliflozin was examined using the NASH-HCC mouse model. NASH-HCC mice were prepared with reference to Non-Patent Document 9, and were used for this experiment. Specifically, male C57BL/6J mice were subcutaneously administered 200 μg of streptozotocin on the second day after birth. The mice were fed ad libitum with a high-fat diet (HFD-32, Clea Japan, Inc.) for 2 weeks starting from 4-week-old. The mice were separated into four groups as described in below 2) and were administered drugs from 6-week-old to 9-week-old as described in below 3). Daily food consumption of the mice in each group were measured while the drugs were administered so that the mice of all groups were fed with the same amount of food as those for the control group. […] Using the specimens, the lipid droplet size in hepatocyte was analyzed by image analysis software Image J. The area of 6000 to 10,000 lipid droplets was measured in each specimen. The median of the lipid droplet area was calculated for each mouse and then the median and quartile were calculated for each group based on the median for each mouse in the group. […]

[4] = 0.1 mg/kg Compound 1, oral once a day
[5] = 10 mg/kg tofogliflozin, oral once a day

OC[C@H]1O[C@@H](c2ccc(F)c(Cc3cc4ccccc4s3)c2)[C@H](O)[C@@H](O)[C@@H]1O [ipragliflozin, (1S)-1,5-anhydro-1-C-{3-[(1-benzothiophen-2-yl)methyl]-4-fluorophenyl}-D-glucitol]
ballooning score (NASH-HCC mouse [1]; 3 mg/kg ipragliflozin, oral once a day): 0.88

CC[C@@H](Oc1cccc(CN(CCCOc2ccc(OC)cc2)c2nc3ccccc3o2)c1)C(=O)O [Compound 1, (R)-2-[3-[[N-(benzoxazol-2-yl)-N-3-(4-methoxyphenoxy)propyl]aminomethyl]phenoxy]butyric acid]
ballooning score (NASH-HCC mouse [2]; [4]): 0.60 | median of lipid droplet size (NASH-HCC mouse [3]; [4]): 1.00 μm^2 | ballooning score (NASH-HCC mouse [1]; [4]): 1.35

CCc1ccc(Cc2ccc3c(c2)[C@]2(OC3)O[C@H](CO)[C@@H](O)[C@H](O)[C@H]2O)cc1 [tofogliflozin, (1S,3′R,4'S,5'S,6′R)-6-[(4-ethylphenyl)methyl]-6′-(hydroxymethyl)-3′,4′,5′,6′-tetrahydro-3H-spiro[2-benzofuran-1,2′-pyran]-3′,4′,5′-triol]
ballooning score (NASH-HCC mouse [2]; [5]): 0.71 | median of lipid droplet size (NASH-HCC mouse [3]; [5]): 1.00 μm^2
